Laboratory results reported in ChEMBL document CHEMBL4431366, “Identification of a benzo imidazole thiazole derivative as the specific irreversible inhibitor of protein tyrosine phosphatase” (Bioorg Med Chem Lett, 2016).
Blank lines part the entries; values can stand above or below the compound they belong to. The source made the active and inactive calls. No cut-off for these calls is given here.

What was measured:
[1] = biological target: T1, Tyrosine-protein phosphatase non-receptor type 5 (Homo sapiens, UniProt P54829); experiment: (§1) Inhibition of N-terminal His-tagged STEP catalytic domain (unknown origin) expressed in Escherichia coli BL21 (DE3) cells using p-nitrophenyl phosphate as substrate
T1 sequence (P54829 whole entry): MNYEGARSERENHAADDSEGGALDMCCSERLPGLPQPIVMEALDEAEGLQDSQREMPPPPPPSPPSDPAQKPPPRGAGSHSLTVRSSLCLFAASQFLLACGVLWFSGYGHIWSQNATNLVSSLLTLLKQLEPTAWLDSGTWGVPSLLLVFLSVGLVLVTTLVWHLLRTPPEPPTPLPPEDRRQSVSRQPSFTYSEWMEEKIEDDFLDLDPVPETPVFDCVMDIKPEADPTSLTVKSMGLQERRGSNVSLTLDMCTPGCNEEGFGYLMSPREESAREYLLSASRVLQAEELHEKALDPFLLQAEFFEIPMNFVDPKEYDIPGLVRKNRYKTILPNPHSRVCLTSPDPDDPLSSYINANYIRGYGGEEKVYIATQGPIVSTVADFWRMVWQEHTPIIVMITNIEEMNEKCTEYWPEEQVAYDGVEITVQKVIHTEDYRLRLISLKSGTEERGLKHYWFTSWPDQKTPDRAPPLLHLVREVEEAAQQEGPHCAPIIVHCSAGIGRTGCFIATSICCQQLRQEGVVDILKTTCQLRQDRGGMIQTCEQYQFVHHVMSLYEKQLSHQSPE

[2] = biological target: T2, Tyrosine-protein phosphatase non-receptor type 5 (Homo sapiens) (UniProt P54829); experiment: as §1
T2 sequence (whole entry): T1 sequence (P54829 whole entry)

[3] = biological target: T3, Tyrosine-protein phosphatase non-receptor type 22 (Homo sapiens) (UniProt Q9Y2R2); experiment: Time-dependent irreversible inhibition of N-terminal His-tagged LYP (1 to 294 residues) (unknown origin) expressed in Escherichia coli BL21 (DE3) cells preincubated with enzyme followed by p-nitrophenyl phosphate substrate addition
T3 sequence (whole entry): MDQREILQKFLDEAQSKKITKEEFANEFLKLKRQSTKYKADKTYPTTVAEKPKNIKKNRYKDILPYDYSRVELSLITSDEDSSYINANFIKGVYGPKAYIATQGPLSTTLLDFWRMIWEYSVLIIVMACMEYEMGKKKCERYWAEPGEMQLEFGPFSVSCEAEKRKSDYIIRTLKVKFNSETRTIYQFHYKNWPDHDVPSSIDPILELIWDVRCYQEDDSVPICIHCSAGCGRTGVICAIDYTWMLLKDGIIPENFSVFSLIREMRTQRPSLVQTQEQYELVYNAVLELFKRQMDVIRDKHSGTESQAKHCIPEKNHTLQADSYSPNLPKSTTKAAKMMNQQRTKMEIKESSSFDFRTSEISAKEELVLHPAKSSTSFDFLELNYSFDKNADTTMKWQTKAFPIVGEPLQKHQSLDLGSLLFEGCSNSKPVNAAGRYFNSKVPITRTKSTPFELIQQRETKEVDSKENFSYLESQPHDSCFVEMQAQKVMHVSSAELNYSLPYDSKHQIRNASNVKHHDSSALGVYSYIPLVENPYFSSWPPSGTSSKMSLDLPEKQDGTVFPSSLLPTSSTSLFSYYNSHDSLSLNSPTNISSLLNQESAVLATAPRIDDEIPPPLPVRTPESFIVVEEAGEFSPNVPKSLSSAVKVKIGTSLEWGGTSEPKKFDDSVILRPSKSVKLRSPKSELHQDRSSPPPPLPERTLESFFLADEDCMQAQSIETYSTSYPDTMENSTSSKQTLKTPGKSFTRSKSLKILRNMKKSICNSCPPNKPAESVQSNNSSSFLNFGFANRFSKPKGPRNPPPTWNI

[4] = biological target: T4, Tyrosine-protein phosphatase non-receptor type 9 (Homo sapiens) (UniProt P43378); experiment: Time-dependent irreversible inhibition of N-terminal His-tagged MEG2 (277 to 583 residues) (unknown origin) expressed in Escherichia coli BL21 (DE3) cells preincubated with enzyme followed by p-nitrophenyl phosphate substrate addition
T4 sequence (whole entry): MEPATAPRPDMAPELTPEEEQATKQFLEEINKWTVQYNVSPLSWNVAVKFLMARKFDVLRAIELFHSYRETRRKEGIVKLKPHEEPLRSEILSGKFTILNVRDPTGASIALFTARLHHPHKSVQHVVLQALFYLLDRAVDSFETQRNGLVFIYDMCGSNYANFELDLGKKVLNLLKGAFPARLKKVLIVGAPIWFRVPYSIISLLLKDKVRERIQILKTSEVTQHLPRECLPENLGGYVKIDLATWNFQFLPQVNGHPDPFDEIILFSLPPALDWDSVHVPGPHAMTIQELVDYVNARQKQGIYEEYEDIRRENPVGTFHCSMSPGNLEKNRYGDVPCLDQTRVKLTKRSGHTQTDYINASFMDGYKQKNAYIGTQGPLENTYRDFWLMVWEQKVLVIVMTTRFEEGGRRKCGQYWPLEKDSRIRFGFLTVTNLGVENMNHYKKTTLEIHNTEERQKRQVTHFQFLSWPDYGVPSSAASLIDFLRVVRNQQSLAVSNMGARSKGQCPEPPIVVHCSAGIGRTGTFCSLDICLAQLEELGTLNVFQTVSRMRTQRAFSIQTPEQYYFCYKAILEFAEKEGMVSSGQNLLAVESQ

Bacteria = experiment: Time-dependent irreversible inhibition of N-terminal His-tagged bacterial YOPH expressed in Escherichia coli BL21 (DE3) cells preincubated with enzyme followed by p-nitrophenyl phosphate substrate addition
[5] = biological target: T5, Tyrosine-protein phosphatase non-receptor type 1 (Homo sapiens) (UniProt P18031); experiment: Time-dependent irreversible inhibition of N-terminal His-tagged PTP1B (unknown origin) expressed in Escherichia coli BL21 (DE3) cells preincubated with enzyme followed by p-nitrophenyl phosphate substrate addition
T5 sequence (whole entry): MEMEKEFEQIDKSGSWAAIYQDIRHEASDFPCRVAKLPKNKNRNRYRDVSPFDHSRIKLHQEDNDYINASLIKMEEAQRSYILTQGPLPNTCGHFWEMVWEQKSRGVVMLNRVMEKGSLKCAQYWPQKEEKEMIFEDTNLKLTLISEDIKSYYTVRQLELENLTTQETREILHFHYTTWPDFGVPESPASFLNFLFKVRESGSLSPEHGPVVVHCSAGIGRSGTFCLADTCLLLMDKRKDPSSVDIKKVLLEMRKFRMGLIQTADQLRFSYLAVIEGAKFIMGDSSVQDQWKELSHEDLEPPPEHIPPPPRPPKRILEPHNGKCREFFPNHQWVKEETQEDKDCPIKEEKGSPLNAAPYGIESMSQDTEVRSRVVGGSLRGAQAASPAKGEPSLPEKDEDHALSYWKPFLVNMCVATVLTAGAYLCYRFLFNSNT

[6] = biological target: T6, Protein phosphatase 1A (Homo sapiens) (UniProt P35813); experiment: Time-dependent irreversible inhibition of N-terminal His-tagged PPM1A (unknown origin) expressed in Escherichia coli BL21 (DE3) cells at 80 uM preincubated with enzyme followed by p-nitrophenyl phosphate substrate addition
T6 sequence (whole entry): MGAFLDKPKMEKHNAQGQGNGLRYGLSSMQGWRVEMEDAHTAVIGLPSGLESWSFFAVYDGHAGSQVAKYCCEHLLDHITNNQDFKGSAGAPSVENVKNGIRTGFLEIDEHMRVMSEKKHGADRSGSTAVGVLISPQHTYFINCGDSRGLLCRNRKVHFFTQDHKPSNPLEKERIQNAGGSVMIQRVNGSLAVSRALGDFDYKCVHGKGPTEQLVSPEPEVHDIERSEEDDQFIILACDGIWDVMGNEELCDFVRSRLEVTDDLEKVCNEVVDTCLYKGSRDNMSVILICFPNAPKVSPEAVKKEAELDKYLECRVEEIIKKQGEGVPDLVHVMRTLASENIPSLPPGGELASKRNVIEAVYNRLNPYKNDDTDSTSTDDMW

[7] = biological target: T7, Protein phosphatase 1B (Homo sapiens) (UniProt O75688); experiment: Time-dependent irreversible inhibition of N-terminal His-tagged PPM1B (unknown origin) expressed in Escherichia coli BL21 (DE3) cells at 80 uM preincubated with enzyme followed by p-nitrophenyl phosphate substrate addition
T7 sequence (whole entry): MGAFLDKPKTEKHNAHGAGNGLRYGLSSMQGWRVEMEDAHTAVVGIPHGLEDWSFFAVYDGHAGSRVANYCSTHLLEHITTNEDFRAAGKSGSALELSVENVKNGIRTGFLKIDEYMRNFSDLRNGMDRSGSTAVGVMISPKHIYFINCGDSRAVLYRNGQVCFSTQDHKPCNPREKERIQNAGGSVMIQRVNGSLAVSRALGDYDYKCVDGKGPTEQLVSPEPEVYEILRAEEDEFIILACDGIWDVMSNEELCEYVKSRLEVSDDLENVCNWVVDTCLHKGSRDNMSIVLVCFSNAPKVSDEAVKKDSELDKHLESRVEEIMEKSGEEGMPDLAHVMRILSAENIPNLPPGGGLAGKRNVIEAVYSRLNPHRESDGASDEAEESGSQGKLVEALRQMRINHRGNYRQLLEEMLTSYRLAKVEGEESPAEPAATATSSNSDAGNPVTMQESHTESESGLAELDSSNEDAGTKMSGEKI

[8] = biological target: T8, Protein phosphatase 1G (Homo sapiens) (UniProt O15355); experiment: Time-dependent irreversible inhibition of N-terminal His-tagged PPM1G (unknown origin) expressed in Escherichia coli BL21 (DE3) cells at 80 uM preincubated with enzyme followed by p-nitrophenyl phosphate substrate addition
T8 sequence (whole entry): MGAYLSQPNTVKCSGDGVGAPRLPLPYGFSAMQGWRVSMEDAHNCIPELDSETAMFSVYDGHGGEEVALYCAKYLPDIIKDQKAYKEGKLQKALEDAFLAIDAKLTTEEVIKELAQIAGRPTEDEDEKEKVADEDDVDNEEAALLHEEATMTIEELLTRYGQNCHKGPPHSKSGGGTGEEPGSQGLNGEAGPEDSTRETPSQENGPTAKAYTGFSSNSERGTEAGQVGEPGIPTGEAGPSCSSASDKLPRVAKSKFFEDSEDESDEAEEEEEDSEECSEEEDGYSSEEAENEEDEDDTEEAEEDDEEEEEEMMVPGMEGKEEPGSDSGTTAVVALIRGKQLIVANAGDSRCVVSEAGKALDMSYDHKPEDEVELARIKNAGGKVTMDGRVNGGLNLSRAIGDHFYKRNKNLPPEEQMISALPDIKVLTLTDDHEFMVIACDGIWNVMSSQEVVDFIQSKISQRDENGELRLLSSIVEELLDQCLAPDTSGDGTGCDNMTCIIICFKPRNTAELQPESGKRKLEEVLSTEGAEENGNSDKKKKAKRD

[9] = biological target: T2, Tyrosine-protein phosphatase non-receptor type 5 (Homo sapiens); experiment: (§2) Time-dependent irreversible inhibition of N-terminal His-tagged STEP catalytic domain (unknown origin) expressed in Escherichia coli BL21 (DE3) cells preincubated with enzyme followed by p-nitrophenyl phosphate substrate addition
[10] = biological target: T1, Tyrosine-protein phosphatase non-receptor type 5; experiment: as §2
[11] = biological target: T2, Tyrosine-protein phosphatase non-receptor type 5 (Homo sapiens)
Description: Time-dependent irreversible inhibition of N-terminal His-tagged STEP catalytic domain (unknown origin) expressed in Escherichia coli BL21 (DE3) cells at 100 uM preincubated with enzyme followed by p-nitrophenyl phosphate substrate addition

- IC50 [1]: > 300 µM
Structure (SMILES): Cc1ccc([N+](=O)[O-])cc1-c1ccc(/C=c2\sc3nc4ccccc4n3c2=O)o1

- IC50 [1]: > 300 µM
Structure (SMILES): O=C(CSc1nc2cc(Cl)ccc2o1)Nc1ccc(C(=O)O)cc1

- IC50 [1]: > 300 µM
Structure (SMILES): COc1cc(/C=c2/sc3nc4ccccc4n3c2=O)cc(Cl)c1OCc1cccc(C(=O)O)c1

- IC50 [1]: > 300 µM
Structure (SMILES): O=C(O)c1cc2ccoc2cc(C(=O)O)c1=O

Second part, the compound before the results:

Structure (SMILES): O=C(O)c1cccc(/C=c2/sc3nc4ccccc4n3c2=O)c1
- IC50 [1]: > 300 µM

Structure (SMILES): Cc1cc(/C=c2/sc3nc4ccccc4n3c2=O)c(C)n1-c1cccc(C(=O)O)c1
- inhibition [2]: Dose-dependent effect
- IC50 [1]: 8.3 µM
- K [3]: 0.0272 min⁻¹
- K [4]: 0.0463 min⁻¹
- K (Bacteria): 0.0486 min⁻¹
- K [5]: 0.0859 min⁻¹
- TDI [6]: Active
- TDI [7]: Active
- TDI [8]: Active
- K [9]: 0.0439 min⁻¹
- Kinact [9]: 0.068 s⁻¹
- Ki [10]: 21.6 µM
- TDI [11]: Active

Structure (SMILES): Cc1cc2cc(OCC(=O)O)ccc2n1-c1ccc(Cl)cc1
- IC50 [1]: > 300 µM

Structure (SMILES): O=C(O)c1ccc(N2C(=O)c3ccc(Br)cc3C2=O)cc1O
- IC50 [1]: 273 µM
